{
  "source": "ChEMBL document CHEMBL4507264",
  "about": "“Data for DCP probe BAY-7598” (2021)",
  "key": {"[1]": {"test_system": "Mast/stem cell growth factor receptor Kit (Homo sapiens), P10721 [D816V]", "sequence (P10721 whole entry D816V)": "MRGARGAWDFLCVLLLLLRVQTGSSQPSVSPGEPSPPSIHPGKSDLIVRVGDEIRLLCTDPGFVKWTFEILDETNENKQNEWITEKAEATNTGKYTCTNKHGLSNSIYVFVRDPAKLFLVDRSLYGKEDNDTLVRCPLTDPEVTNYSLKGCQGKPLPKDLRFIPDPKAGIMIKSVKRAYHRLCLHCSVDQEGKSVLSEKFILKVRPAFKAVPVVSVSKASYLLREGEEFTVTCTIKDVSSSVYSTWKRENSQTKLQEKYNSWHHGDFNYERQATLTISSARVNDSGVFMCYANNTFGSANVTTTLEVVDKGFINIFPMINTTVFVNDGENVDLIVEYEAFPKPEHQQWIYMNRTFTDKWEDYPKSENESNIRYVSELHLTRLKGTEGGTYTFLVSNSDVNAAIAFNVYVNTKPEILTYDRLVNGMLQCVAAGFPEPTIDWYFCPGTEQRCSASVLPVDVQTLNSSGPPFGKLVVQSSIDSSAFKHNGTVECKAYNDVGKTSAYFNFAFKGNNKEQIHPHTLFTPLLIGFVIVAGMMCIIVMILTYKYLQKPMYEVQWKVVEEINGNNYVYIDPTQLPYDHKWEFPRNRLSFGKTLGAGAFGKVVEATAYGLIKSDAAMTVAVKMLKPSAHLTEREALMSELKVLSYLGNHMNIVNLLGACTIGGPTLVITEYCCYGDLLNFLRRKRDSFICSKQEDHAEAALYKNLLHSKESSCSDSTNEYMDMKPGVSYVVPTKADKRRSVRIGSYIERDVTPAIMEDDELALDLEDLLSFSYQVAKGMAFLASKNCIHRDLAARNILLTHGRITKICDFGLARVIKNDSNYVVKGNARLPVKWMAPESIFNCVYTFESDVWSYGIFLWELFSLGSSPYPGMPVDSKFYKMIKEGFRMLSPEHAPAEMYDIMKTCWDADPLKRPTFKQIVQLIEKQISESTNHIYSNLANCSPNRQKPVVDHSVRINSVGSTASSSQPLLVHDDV", "conditions": "Compound concentration 1000.0 nM"}, "[2]": {"target": "ALK tyrosine kinase receptor (Homo sapiens) (UniProt Q9UM73)", "conditions": "Compound concentration 1000.0 nM"}, "[3]": {"target": "Mast/stem cell growth factor receptor Kit (Homo sapiens) (UniProt P10721)", "sequence (P10721 whole entry)": "as the sequence (P10721 whole entry D816V) above, with V816D counted along it", "conditions": "Compound concentration 1000.0 nM"}, "[4]": {"test_system": "Hepatocyte growth factor receptor (Homo sapiens), P08581 [Y1235D]", "conditions": "Compound concentration 1000.0 nM"}, "[5]": {"target": "Mitogen-activated protein kinase kinase kinase 19 (Homo sapiens) (UniProt Q56UN5)", "conditions": "Compound concentration 1000.0 nM"}, "[6]": {"target": "Ribosomal protein S6 kinase alpha-2 (Homo sapiens) (UniProt Q15349)", "conditions": "Compound concentration 1000.0 nM"}, "[7]": {"test_system": "Epidermal growth factor receptor (Homo sapiens), P00533 [UNDEFINED MUTATION]", "conditions": "Compound concentration 1000.0 nM"}, "[8]": {"target": "Activin receptor type-1B (Homo sapiens) (UniProt P36896)", "conditions": "Compound concentration 1000.0 nM"}, "[9]": {"target": "Receptor tyrosine-protein kinase erbB-3 (Homo sapiens) (UniProt P21860)", "conditions": "Compound concentration 1000.0 nM"}, "[10]": {"target": "Cyclin-dependent kinase 19 (Homo sapiens) (UniProt Q9BWU1)", "sequence (Q9BWU1 whole entry)": "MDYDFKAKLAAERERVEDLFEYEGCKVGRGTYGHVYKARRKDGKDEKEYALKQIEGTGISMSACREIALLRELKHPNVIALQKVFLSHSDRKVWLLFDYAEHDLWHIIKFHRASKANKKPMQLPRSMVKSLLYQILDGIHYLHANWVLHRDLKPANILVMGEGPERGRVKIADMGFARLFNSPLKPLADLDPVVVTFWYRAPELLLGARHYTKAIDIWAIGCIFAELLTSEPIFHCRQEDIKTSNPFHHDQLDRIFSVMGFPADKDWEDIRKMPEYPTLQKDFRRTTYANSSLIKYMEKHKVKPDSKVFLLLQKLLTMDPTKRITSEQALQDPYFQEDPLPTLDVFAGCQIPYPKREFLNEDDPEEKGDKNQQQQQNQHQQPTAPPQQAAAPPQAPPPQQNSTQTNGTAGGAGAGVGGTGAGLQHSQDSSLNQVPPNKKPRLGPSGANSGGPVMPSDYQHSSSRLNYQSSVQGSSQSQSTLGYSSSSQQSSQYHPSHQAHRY", "conditions": "Compound concentration 1000.0 nM"}, "[11]": {"target": "Non-receptor tyrosine-protein kinase TYK2 (Homo sapiens) (UniProt P29597)", "conditions": "Compound concentration 1000.0 nM"}, "[12]": {"target": "Serine/threonine-protein kinase MRCK alpha (Homo sapiens) (UniProt Q5VT25)", "conditions": "Compound concentration 1000.0 nM"}, "[13]": {"target": "Aurora kinase B (Homo sapiens) (UniProt Q96GD4)", "conditions": "Compound concentration 1000.0 nM"}, "[14]": {"test_system": "Tyrosine-protein kinase ABL1 (Homo sapiens), P00519 [T315I]", "conditions": "Compound concentration 1000.0 nM"}, "[15]": {"test_system": "Receptor-type tyrosine-protein kinase FLT3 (Homo sapiens), P36888 [N841I]", "conditions": "Compound concentration 1000.0 nM"}, "[16]": {"target": "Ephrin type-A receptor 3 (Homo sapiens) (UniProt P29320)", "conditions": "Compound concentration 1000.0 nM"}, "[17]": {"target": "Protein-tyrosine kinase 6 (Homo sapiens) (UniProt Q13882)", "conditions": "Compound concentration 1000.0 nM"}, "[18]": {"target": "Epithelial discoidin domain-containing receptor 1 (Homo sapiens) (UniProt Q08345)", "sequence (Q08345 whole entry, the tested form may be a part)": "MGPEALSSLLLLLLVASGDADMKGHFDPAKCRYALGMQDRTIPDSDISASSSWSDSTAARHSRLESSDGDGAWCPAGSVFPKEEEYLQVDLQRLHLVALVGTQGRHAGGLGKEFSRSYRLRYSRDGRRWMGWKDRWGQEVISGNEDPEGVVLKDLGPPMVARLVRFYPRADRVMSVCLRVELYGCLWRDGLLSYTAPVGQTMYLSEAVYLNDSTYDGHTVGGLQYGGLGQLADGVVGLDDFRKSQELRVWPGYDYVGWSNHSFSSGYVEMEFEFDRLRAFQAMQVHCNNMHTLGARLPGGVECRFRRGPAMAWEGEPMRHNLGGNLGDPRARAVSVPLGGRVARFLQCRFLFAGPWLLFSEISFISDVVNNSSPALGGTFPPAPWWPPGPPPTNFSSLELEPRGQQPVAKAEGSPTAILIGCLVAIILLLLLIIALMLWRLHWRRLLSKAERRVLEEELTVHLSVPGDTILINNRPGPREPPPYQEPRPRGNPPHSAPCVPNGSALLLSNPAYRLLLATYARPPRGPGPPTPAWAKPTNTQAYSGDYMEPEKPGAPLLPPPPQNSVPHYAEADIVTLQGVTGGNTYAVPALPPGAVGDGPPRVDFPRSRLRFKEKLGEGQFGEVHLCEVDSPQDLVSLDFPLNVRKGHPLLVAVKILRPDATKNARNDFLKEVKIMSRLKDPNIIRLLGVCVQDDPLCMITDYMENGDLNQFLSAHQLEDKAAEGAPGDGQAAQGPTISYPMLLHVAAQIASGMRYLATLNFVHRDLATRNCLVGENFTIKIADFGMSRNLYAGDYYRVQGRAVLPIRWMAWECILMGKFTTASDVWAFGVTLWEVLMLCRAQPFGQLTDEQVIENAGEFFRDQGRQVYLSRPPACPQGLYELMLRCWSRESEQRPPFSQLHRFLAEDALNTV", "conditions": "Compound concentration 1000.0 nM"}, "[19]": {"target": "Rho-associated protein kinase 1 (Homo sapiens) (UniProt Q13464)", "conditions": "Compound concentration 1000.0 nM"}, "[20]": {"target": "LIM domain kinase 2 (Homo sapiens) (UniProt P53671)", "conditions": "Compound concentration 1000.0 nM"}, "[21]": {"target": "Ribosomal protein S6 kinase alpha-1 (Homo sapiens) (UniProt Q15418)", "conditions": "Compound concentration 1000.0 nM"}, "[22]": {"target": "Calcium/calmodulin-dependent protein kinase type IV (Homo sapiens) (UniProt Q16566)", "conditions": "Compound concentration 1000.0 nM"}, "[23]": {"target": "Ribosomal protein S6 kinase alpha-6 (Homo sapiens) (UniProt Q9UK32)", "conditions": "Compound concentration 1000.0 nM"}, "[24]": {"target": "Serine/threonine-protein kinase N2 (Homo sapiens) (UniProt Q16513)", "sequence (Q16513 whole entry, looked up)": "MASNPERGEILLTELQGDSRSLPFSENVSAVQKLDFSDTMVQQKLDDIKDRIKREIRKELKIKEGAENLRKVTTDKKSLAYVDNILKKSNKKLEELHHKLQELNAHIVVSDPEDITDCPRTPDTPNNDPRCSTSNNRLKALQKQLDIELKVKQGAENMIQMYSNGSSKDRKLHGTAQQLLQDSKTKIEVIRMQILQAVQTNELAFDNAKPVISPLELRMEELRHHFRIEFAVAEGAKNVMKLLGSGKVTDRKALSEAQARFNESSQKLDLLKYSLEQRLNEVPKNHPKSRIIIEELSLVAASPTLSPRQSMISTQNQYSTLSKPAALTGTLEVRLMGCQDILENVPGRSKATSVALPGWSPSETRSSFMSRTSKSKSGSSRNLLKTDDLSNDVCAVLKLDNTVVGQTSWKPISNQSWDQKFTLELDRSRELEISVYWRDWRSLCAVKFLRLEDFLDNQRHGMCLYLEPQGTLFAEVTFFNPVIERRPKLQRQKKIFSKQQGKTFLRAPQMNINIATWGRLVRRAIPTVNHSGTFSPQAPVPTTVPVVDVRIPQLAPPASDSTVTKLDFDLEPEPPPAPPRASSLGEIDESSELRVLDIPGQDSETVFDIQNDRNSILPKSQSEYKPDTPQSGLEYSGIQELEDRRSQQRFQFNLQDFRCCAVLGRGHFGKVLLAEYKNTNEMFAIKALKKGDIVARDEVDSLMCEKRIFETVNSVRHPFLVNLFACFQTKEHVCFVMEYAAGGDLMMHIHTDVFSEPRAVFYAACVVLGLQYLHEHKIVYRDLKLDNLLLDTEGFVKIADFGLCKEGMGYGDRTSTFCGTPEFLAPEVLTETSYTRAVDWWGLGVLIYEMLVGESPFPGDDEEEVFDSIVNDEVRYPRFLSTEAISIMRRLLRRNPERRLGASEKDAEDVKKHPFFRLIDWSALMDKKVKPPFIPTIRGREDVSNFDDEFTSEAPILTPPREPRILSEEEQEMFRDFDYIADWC", "conditions": "Compound concentration 1000.0 nM"}, "[25]": {"test_system": "Phosphatidylinositol 4,5-bisphosphate 3-kinase catalytic subunit alpha isoform (Homo sapiens), P42336 [Q546K]", "conditions": "Compound concentration 1000.0 nM"}, "[26]": {"target": "Bone morphogenetic protein receptor type-1B (Homo sapiens) (UniProt O00238)", "conditions": "Compound concentration 1000.0 nM"}, "[27]": {"target": "Eukaryotic translation initiation factor 2-alpha kinase 1 (Homo sapiens) (UniProt Q9BQI3)", "conditions": "Compound concentration 1000.0 nM"}, "[28]": {"target": "Mitogen-activated protein kinase 11 (Homo sapiens) (UniProt Q15759)", "conditions": "Compound concentration 1000.0 nM"}, "[29]": {"test_system": "Receptor-type tyrosine-protein kinase FLT3 (Homo sapiens), P36888 [UNDEFINED MUTATION]", "conditions": "Compound concentration 1000.0 nM"}, "[30]": {"target": "Ribosomal protein S6 kinase alpha-5 (Homo sapiens) (UniProt O75582)", "sequence (O75582 whole entry, looked up)": "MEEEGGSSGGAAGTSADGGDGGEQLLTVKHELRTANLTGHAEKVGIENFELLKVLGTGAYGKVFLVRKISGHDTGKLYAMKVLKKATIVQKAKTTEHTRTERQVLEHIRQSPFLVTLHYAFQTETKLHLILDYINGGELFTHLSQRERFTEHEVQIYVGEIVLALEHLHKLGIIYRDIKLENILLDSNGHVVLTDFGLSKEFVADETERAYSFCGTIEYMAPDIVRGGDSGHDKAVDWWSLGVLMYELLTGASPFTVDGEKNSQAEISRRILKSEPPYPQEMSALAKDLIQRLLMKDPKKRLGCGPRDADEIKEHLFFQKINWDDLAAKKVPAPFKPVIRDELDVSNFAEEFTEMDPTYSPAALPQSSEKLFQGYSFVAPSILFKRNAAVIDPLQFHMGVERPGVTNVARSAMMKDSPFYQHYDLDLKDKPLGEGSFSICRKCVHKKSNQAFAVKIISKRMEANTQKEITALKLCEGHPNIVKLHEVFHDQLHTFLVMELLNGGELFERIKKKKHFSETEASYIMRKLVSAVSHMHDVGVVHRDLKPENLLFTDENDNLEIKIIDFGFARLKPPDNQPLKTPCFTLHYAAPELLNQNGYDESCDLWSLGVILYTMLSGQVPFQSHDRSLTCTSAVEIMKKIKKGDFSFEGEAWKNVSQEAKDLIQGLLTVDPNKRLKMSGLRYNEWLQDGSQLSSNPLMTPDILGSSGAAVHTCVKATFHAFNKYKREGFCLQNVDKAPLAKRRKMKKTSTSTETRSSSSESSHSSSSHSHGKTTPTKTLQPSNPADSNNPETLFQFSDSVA", "conditions": "Compound concentration 1000.0 nM"}, "[31]": {"target": "Serine/threonine-protein kinase RIO2 (Homo sapiens) (UniProt Q9BVS4)", "conditions": "Compound concentration 1000.0 nM"}, "[32]": {"target": "Serine/threonine-protein kinase TNNI3K (Homo sapiens) (UniProt Q59H18)", "conditions": "Compound concentration 1000.0 nM"}, "[33]": {"target": "Ephrin type-A receptor 2 (Homo sapiens) (UniProt P29317)", "conditions": "Compound concentration 1000.0 nM"}, "[34]": {"target": "Myosin light chain kinase (Homo sapiens) (UniProt Q32MK0)", "sequence (Q32MK0 whole entry)": "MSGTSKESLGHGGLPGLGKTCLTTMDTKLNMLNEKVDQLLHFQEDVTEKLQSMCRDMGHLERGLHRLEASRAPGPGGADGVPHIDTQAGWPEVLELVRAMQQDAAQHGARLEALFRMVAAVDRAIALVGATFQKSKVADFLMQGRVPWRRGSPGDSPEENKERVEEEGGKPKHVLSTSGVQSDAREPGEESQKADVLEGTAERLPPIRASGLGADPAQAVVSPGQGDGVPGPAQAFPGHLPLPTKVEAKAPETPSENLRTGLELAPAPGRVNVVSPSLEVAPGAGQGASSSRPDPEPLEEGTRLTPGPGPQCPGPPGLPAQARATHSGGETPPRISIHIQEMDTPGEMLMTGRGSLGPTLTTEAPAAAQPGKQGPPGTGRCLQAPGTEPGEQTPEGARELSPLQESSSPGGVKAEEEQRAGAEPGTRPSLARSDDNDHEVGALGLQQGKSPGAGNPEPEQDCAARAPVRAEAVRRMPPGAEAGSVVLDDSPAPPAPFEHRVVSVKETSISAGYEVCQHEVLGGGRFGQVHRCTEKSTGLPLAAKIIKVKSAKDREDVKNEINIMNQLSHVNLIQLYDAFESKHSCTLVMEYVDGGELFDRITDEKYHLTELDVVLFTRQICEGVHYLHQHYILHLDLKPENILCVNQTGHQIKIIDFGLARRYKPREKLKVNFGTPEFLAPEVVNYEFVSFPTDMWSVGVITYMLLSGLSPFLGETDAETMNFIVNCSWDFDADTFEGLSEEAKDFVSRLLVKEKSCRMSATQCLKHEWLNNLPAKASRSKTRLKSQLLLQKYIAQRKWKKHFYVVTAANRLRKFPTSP", "conditions": "Compound concentration 1000.0 nM"}, "[35]": {"target": "Uncharacterized serine/threonine-protein kinase SBK3 (Homo sapiens) (UniProt P0C264)", "conditions": "Compound concentration 1000.0 nM"}, "[36]": {"target": "Sodium-dependent serotonin transporter (Homo sapiens) (UniProt P31645)", "conditions": "Compound concentration 10.0 uM"}, "[37]": {"target": "Activin receptor type-1-like (Homo sapiens) (UniProt P37023)", "conditions": "Compound concentration 1000.0 nM"}},
  "data": [
    {"smiles": "O=C(O)[C@@H]1[C@@H](Cn2nnc3ccccc3c2=O)CC[C@H]1C(=O)c1ccc(OCCC2CCOCC2)cc1", "note": "[BAY-694]", "values": [
      {"measurement": "residual activity", "setting": "[1]", "value": 98, "unit": "%"},
      {"measurement": "residual activity", "setting": "[2]", "value": 100, "unit": "%"},
      {"measurement": "residual activity", "setting": "[3]", "value": 100, "unit": "%"},
      {"measurement": "residual activity", "setting": "[4]", "value": 98, "unit": "%"},
      {"measurement": "residual activity", "setting": "[5]", "value": 84, "unit": "%"},
      {"measurement": "residual activity", "setting": "[6]", "value": 96, "unit": "%"},
      {"measurement": "residual activity", "setting": "[7]", "value": 87, "unit": "%"},
      {"measurement": "residual activity", "setting": "[8]", "value": 100, "unit": "%"},
      {"measurement": "residual activity", "setting": "[9]", "value": 94, "unit": "%"},
      {"measurement": "residual activity", "setting": "[10]", "value": 100, "unit": "%"},
      {"measurement": "residual activity", "setting": "[11]", "value": 58, "unit": "%"},
      {"measurement": "residual activity", "setting": "[12]", "value": 91, "unit": "%"},
      {"measurement": "residual activity", "setting": "[13]", "value": 100, "unit": "%"},
      {"measurement": "residual activity", "setting": "[14]", "value": 100, "unit": "%"},
      {"measurement": "residual activity", "setting": "[15]", "value": 98, "unit": "%"},
      {"measurement": "residual activity", "setting": "[16]", "value": 100, "unit": "%"},
      {"measurement": "residual activity", "setting": "[17]", "value": 99, "unit": "%"},
      {"measurement": "residual activity", "setting": "[18]", "value": 100, "unit": "%"},
      {"measurement": "residual activity", "setting": "[19]", "value": 84, "unit": "%"},
      {"measurement": "residual activity", "setting": "[20]", "value": 100, "unit": "%"},
      {"measurement": "residual activity", "setting": "[21]", "value": 92, "unit": "%"},
      {"measurement": "residual activity", "setting": "[22]", "value": 75, "unit": "%"},
      {"measurement": "residual activity", "setting": "[23]", "value": 100, "unit": "%"},
      {"measurement": "residual activity", "setting": "[24]", "value": 100, "unit": "%"},
      {"measurement": "residual activity", "setting": "[25]", "value": 86, "unit": "%"},
      {"measurement": "residual activity", "setting": "[26]", "value": 78, "unit": "%"},
      {"measurement": "residual activity", "setting": "[27]", "value": 100, "unit": "%"},
      {"measurement": "residual activity", "setting": "[28]", "value": 99, "unit": "%"},
      {"measurement": "residual activity", "setting": "[29]", "value": 100, "unit": "%"},
      {"measurement": "residual activity", "setting": "[30]", "value": 100, "unit": "%"},
      {"measurement": "residual activity", "setting": "[31]", "value": 88, "unit": "%"},
      {"measurement": "residual activity", "setting": "[32]", "value": 94, "unit": "%"},
      {"measurement": "residual activity", "setting": "[33]", "value": 100, "unit": "%"},
      {"measurement": "residual activity", "setting": "[34]", "value": 72, "unit": "%"},
      {"measurement": "residual activity", "setting": "[35]", "value": 43, "unit": "%"},
      {"measurement": "inhibition", "setting": "[36]", "value": 10.2, "unit": "%"},
      {"measurement": "residual activity", "setting": "[37]", "value": 97, "unit": "%"}
    ]},
    {"smiles": "O=C(O)[C@H]1[C@H](Cn2nnc3ccccc3c2=O)CC[C@@H]1C(=O)c1ccc(OCCC2CCOCC2)cc1", "note": "[BAY-7598]", "values": [
      {"measurement": "residual activity", "setting": "[1]", "value": 97, "unit": "%"},
      {"measurement": "residual activity", "setting": "[2]", "value": 100, "unit": "%"},
      {"measurement": "residual activity", "setting": "[3]", "value": 65, "unit": "%"},
      {"measurement": "residual activity", "setting": "[4]", "value": 100, "unit": "%"},
      {"measurement": "residual activity", "setting": "[5]", "value": 78, "unit": "%"},
      {"measurement": "residual activity", "setting": "[6]", "value": 90, "unit": "%"},
      {"measurement": "residual activity", "setting": "[7]", "value": 76, "unit": "%"},
      {"measurement": "residual activity", "setting": "[8]", "value": 74, "unit": "%"},
      {"measurement": "residual activity", "setting": "[9]", "value": 69, "unit": "%"},
      {"measurement": "residual activity", "setting": "[10]", "value": 100, "unit": "%"},
      {"measurement": "residual activity", "setting": "[11]", "value": 41, "unit": "%"},
      {"measurement": "residual activity", "setting": "[12]", "value": 100, "unit": "%"},
      {"measurement": "residual activity", "setting": "[13]", "value": 100, "unit": "%"},
      {"measurement": "residual activity", "setting": "[14]", "value": 100, "unit": "%"},
      {"measurement": "residual activity", "setting": "[15]", "value": 85, "unit": "%"},
      {"measurement": "residual activity", "setting": "[16]", "value": 88, "unit": "%"},
      {"measurement": "residual activity", "setting": "[17]", "value": 100, "unit": "%"},
      {"measurement": "residual activity", "setting": "[18]", "value": 100, "unit": "%"},
      {"measurement": "residual activity", "setting": "[19]", "value": 87, "unit": "%"},
      {"measurement": "residual activity", "setting": "[20]", "value": 90, "unit": "%"},
      {"measurement": "residual activity", "setting": "[21]", "value": 95, "unit": "%"},
      {"measurement": "residual activity", "setting": "[22]", "value": 78, "unit": "%"},
      {"measurement": "residual activity", "setting": "[23]", "value": 86, "unit": "%"},
      {"measurement": "residual activity", "setting": "[24]", "value": 76, "unit": "%"},
      {"measurement": "residual activity", "setting": "[25]", "value": 97, "unit": "%"},
      {"measurement": "residual activity", "setting": "[26]", "value": 95, "unit": "%"},
      {"measurement": "residual activity", "setting": "[27]", "value": 78, "unit": "%"},
      {"measurement": "residual activity", "setting": "[28]", "value": 78, "unit": "%"},
      {"measurement": "residual activity", "setting": "[29]", "value": 87, "unit": "%"},
      {"measurement": "residual activity", "setting": "[30]", "value": 100, "unit": "%"},
      {"measurement": "residual activity", "setting": "[31]", "value": 100, "unit": "%"},
      {"measurement": "residual activity", "setting": "[32]", "value": 100, "unit": "%"},
      {"measurement": "residual activity", "setting": "[33]", "value": 93, "unit": "%"},
      {"measurement": "residual activity", "setting": "[34]", "value": 93, "unit": "%"},
      {"measurement": "residual activity", "setting": "[35]", "value": 100, "unit": "%"},
      {"measurement": "inhibition", "setting": "[36]", "value": 13.9, "unit": "%"},
      {"measurement": "residual activity", "setting": "[37]", "value": 85, "unit": "%"}
    ]}
  ]
}
